The values that follow are results of earlier work, collected in patent US6486349B1, “Amide therapeutics and methods for treating inflammatory bowel disease” (Centaur Pharmaceuticals, Inc., priority 1999, dated 2002).

The data set has as its system senescence-accelerated mice.

Each structure is given as a SMILES string.

As to `CC(C)(C)/[N+]([O-])=C/c1ccccc1` [PBN, α-phenyl-t-butyl nitrone], the “increase of the life span” value is “one third”.
